Source: PMC7615676, “Short-course combination treatment for experimental chronic Chagas disease” (Science translational medicine, 2023)
“And” between values parts separate entries of the source, which are not always exact repeats. Identical values can stand only once. Like-named read-outs stand apart in the source and are kept apart here.

Experiments:
HepG2 cells [1] = assay: general cytotoxicity assay in HepG2 cells; format: cell-based; settings: Homo sapiens, HepG2, 48 h, CellTiter-Glo
Experimental: This assay was previously described ([36]). Briefly, actively growing HepG2 cells were removed from a T-175 TC flask using 5 ml Eagle’s MEM (containing 10 % FBS, 1 % NEAA, 1 % penicillin/ streptomycin. Carbon source is D-glucose at 1 g/l) and dispersed in the medium by repeated pipetting. Seeding density was checked to ensure that new monolayers were not more than 50 % confluent at the time of harvesting. Cell suspension was added to 500 ml of the same medium at a final density of 1.2 x 10^5 cells/ml. This cell suspension was dispensed (25 μl, 3000 cells per well) into 384-well clear-bottom plates using a Multidrop Combi dispenser. Prior to addition of the cell suspension, the screening compounds (250 nl) were predispensed into the plates with an EchoH liquid handler. Plates were incubated for 48 h at 37°C, 5% CO2. After incubation, plates equilibrated at room temperature for 30 min before proceeding to develop the luminescent signal. The signal developer, CellTiter-Glo Reagent, was allowed to equilibrate at room temperature for 30 min and added to the plates ([…]) using a Multidrop Combi dispenser. Plates were left for 10 min at room temperature for stabilization and then read using a ViewLux.

[2] = molecular target: T1, Human complex III (bc1), mitochondria from THP-1 (Homo sapiens, UniProt P00156); assay: human complex III inhibition assay; format: biochemical
T1 construct: Preparation of mitochondria from a human cell line (THP-1); endogenous in cells; host or cells: THP-1 (human) mitochondria
Experimental: Preparation of mitochondria from a human cell line (THP-1) was performed following published procedure ([72]). The protocol for the assay has been described in ([73]).

[3] = system: isolated rat liver mitochondria; assay: calcium loading capacity (CLC) in rat liver mitochondria; format: biochemical; settings: minimum effective concentration
Experimental: The CLC of freshly isolated liver mitochondria was determined as previously described ([70]). Briefly, mitochondria were suspended at 0.2 mg/ml in incubation buffer B, supplemented with 100 μM arsenazo III, 2.5 μM rotenone and 1 μg/ml oligomycin in each well of a 96 well microplate (control and treated mitochondria were assayed simultaneously) and absorbance measured every 2 seconds at 650 nm in a FlexStation3 microplate reader (Molecular Devices, Sunnyvale, CA, USA). After approximately 1 minute of reading, Ca^2+ was added (0.5-1 μmol/ mg mitochondrial protein) followed by the addition of 10 mM succinate as the mitochondrial substrate. The CLC was calculated as the difference in optical density (ΔOD) between the point at which mitochondria were energized and the point where mitochondrial permeability transition was triggered (i.e., the lowest OD reading before calcium release via MPT).
The concentration-response relationship was modelled using a robust fit of a cubic polynomial regression ([74], [75]). The fitted curves were then used to calculate the Minimum Effective Concentration (MEC). The MEC was defined as the lowest concentration where the fitted curve exceeded 3 standard deviations (SD) around the DMSO mean response. SD was estimated from the deviations of DMSO and compound treated wells around the fitted means, using a robust estimator based on Gini’s mean difference ([76]).

HepG2 cells [4] = assay: Seahorse MST (mitochondrial stress test), oxygen consumption rate; format: cell-based; settings: lowest concentration reducing OCR >15% vs DMSO
Experimental: To measure the Oxygen Consumption Rate (OCR) in cells following compound treatment, the Seahorse XFe96 Extracellular Flux Analyser (Agilent) was used ([69]). HepG2 cells were maintained in DMEM medium (Invitrogen #11966-025) supplemented with 10 mM galactose, 1 mM sodium pyruvate, 5 mM HEPES, 2 mM GlutaMAX, 10% fetal bovine serum and 50 μg/ml gentamycin. Cells were maintained in a 37 °C, 5% CO2 humidified atmosphere. The measurement of OCR was performed as previously described ([70], [71]) with minor modifications. Briefly, HepG2 cells were seeded in an XF96-well plate at 14000 cells per 100 μl cell culture medium per well and incubated in a 37 °C, 5% CO2 humidified atmosphere for 24 hours. Following incubation, the culture medium was replaced with 175 μl pre-warmed, serum-free XF base assay medium (Agilent), supplemented with 2 mM L-glutamine, 1 mM sodium pyruvate and 10 mM galactose (pH 7.4) and incubated at 37 °C for one hour. Test compounds (compound 3 and 4) were maintained in DMSO and a four-point dose response (final concentrations 10, 20, 40 and 80 μM), plus 0.4% DMSO control, were diluted to 8× concentration in XF assay medium and 25 μL was loaded into Port A of the XF Assay Cartridge. The mito-stress test components oligomycin (1 μM final), carbonyl cyanide-4-(trifluoromethoxy)-phenylhydrazon [FCCP] […]

[5] = system: chronic T. cruzi infection (CL Brener) in BALB/c mice; parameters: method as in PMID 27748443; settings: cited from earlier work
[6] = parameters: method as in PMID 21073628, PMID 20932171; settings: patients; cited from earlier work
[7] = read-out: HepG2 pEC50 (converted)
[8] = 200.00 µM, read-out: Average % inhibition of human bc1

| Structure (SMILES) | EC50 (HepG2 cells [1]; read-out: HepG2 EC50) | EC50 (HepG2 cells [1]; [7]) | % inhibition of human bc1, individual replicates ([2]; 0.09 µM) | inhibition at 0.09 µM ([2]; 0.09 µM) | % inhibition of human bc1, individual replicates ([2]; 0.27 µM) | inhibition at 0.27 µM ([2]; 0.27 µM) | % inhibition of human bc1, individual replicates ([2]; 0.82 µM) | inhibition at 0.82 µM ([2]; 0.82 µM) | % inhibition of human bc1, individual replicates ([2]; 2.47 µM) | inhibition at 2.47 µM ([2]; 2.47 µM) | % inhibition of human bc1, individual replicates ([2]; 7.41 µM) | inhibition at 7.41 µM ([2]; 7.41 µM) | % inhibition of human bc1, individual replicates ([2]; 22.22 µM) | inhibition at 22.22 µM ([2]; 22.22 µM) | % inhibition of human bc1, individual replicates ([2]; 66.67 µM) | inhibition at 66.67 µM ([2]; 66.67 µM) | % inhibition of human bc1, individual replicates ([2]; 200.00 µM) | inhibition at 200 µM [2, 8] | Calcium loading capacity, rat mitochondria, MEC [3] | Seahorse MST, HepG2, LEC (HepG2 cells [4]) | further results |
| --- | --- | --- | --- | --- | --- | --- | --- | --- | --- | --- | --- | --- | --- | --- | --- | --- | --- | --- | --- | --- | --- |
| COc1cc(F)ccc1-c1c(C)[nH]c2nc(N)nc(C)c12 [Compound 2, 5-(4-Fluoro-2-methoxyphenyl)-4,6-dimethyl-7H-pyrrolo[2,3-d]pyrimidin-2-amine] | 79 µM | 63.1 µM | – | – | – | – | – | – | – | – | – | – | – | – | – | – | – | – | – | – | – |
| COc1ccc(-c2c(C)[nH]c3nc(N)nc(C)c23)c(OC)c1 [Compound 4, 5-(2,4-Dimethoxyphenyl)-4,6-dimethyl-7H-pyrrolo[2,3-d]pyrimidin-2-amine] | 79 µM | 79.4 µM | -12.21% and 6.38% | -2.92% | -0.73% and 8.86% and -14.09% | -1.99% | -0.42% and -1.05% and -3.03% | -1.5% | -7.80% and 0.71% and -1.55% | -2.88% | 20.02% and -3.97% and 5.85% | 7.3% | 11.11% and -1.32% and 9.84% | 6.55% | 21.01% and 18.54% and -10.78% | 9.59% | 5.17% and 18.62% and -0.60% | 7.73% | >200 µM | >80 µM | EC50 [2]: > 200 µM |
| COc1cc(Cl)ccc1-c1c(C)[nH]c2nc(N)nc(C)c12 [Compound 3, 5-(4-Chloro-2-methoxyphenyl)-4,6-dimethyl-7H-pyrrolo[2,3-d]pyrimidin-2-amine] | 79 µM | 79.4 µM | -102.79% and -0.39% and 23.45% and -1.32% and -77.48% and 6.58% | -25.3% | -31.71% and -5.91% and 16.57% and 7.05% and 0.38% and 2.42% | -1.87% | -55.04% and -6.88% and 19.61% and 6.94% and 1.93% and 10.74% | -3.78% | -19.11% and -13.68% and 7.11% and 15.66% and -8.81% and 14.23% | -0.76% | -1.93% and 0.10% and 21.95% and 17.90% and 0.73% and -3.46% | 5.88% | -14.09% and -16.93% and 21.42% and 11.31% and -5.13% | -0.68% | -178.30% and 13.25% and 22.71% and -32.39% and -2.98% and 16.87% | -26.8% | 22.88% and 27.88% and 27.19% and -35.32% and 30.21% and 59.63% | 22.1% | 5.7 µM | 80 µM | inhibition at 200 µM ([2]; 200 μM, read-out: Human complex III inhibition at 200μM): 20%; inhibition of human complex III ([2]; concentrations up to and including 66.7 μM): did not inhibit |
| O=C(Cn1ccnc1[N+](=O)[O-])NCc1ccccc1 [Benznidazole, reference compound] | > 100 µM | > 100 µM | – | – | – | – | – | – | – | – | – | – | – | – | – | – | – | – | – | – | minimum efficacious dose in a five-day chronic study [5]: 100 mg/kg; discontinuation of treatment prior to completion due to adverse side-effects [6]: up to 29% |
